Drawing on ChEMBL document CHEMBL3098053, “Inhibition of serine and proline racemases by substrate-product analogues” (Bioorg Med Chem Lett, 2014), this text covers Ki, IC50 and inhibition for four molecules.

Assay [1] deals with T1, Serine racemase (Schizosaccharomyces pombe (strain 972 / ATCC 24843) (Fission yeast), UniProt O59791).
T1 sequence (O59791 whole entry): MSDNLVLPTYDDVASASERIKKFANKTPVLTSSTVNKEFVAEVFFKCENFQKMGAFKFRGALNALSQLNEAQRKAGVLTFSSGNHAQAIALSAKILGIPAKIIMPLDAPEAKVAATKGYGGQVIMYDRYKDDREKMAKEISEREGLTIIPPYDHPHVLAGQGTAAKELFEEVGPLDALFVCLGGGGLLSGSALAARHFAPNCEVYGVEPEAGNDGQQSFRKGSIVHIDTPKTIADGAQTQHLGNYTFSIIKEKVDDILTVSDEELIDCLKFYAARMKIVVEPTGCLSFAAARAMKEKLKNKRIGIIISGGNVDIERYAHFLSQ
The experiment in a line: Mixed type inhibition of N-terminal 6xHis-tagged recombinant Schizosaccharomyces pombe 972 serine racemase expressed in Escherichia coli BL21(DE3) using L-serine as substrate assessed as enzyme-substrate-inhibitor complex preincubated for 2 mins followed by substrate addition by double reciprocal plot analysis.

Assay [2] addresses T1, Serine racemase. Put plainly: Mixed type inhibition of N-terminal 6xHis-tagged recombinant Schizosaccharomyces pombe 972 serine racemase expressed in Escherichia coli BL21(DE3) using L-serine as substrate assessed as enzyme-inhibitor complex preincubated for 2 mins followed by substrate addition by double reciprocal plot analysis.
Assay [3] deals with T2, Proline racemase (Clostridium sticklandii, UniProt Q9L4Q3).
T2 sequence (Q9L4Q3 whole entry): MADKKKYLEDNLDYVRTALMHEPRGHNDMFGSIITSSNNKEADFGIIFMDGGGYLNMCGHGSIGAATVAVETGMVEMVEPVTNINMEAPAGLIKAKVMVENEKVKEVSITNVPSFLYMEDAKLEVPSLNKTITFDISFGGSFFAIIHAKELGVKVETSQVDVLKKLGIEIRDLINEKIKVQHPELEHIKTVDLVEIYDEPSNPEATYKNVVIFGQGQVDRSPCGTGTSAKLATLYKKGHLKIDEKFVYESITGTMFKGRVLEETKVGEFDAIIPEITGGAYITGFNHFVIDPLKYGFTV
The experiment in a line: Noncompetitive inhibition of N-terminal 6xHis-tagged Clostridium sticklandii ATCC 12662 proline racemase expressed in Escherichia coli BL21(DE3) using L/D-proline as substrate preincubated for 5 mins by Cornish-Bowden plot analysis. Also noted: species or system Acetoanaerobium sticklandii.

Assay [4] has as its target T2, Proline racemase. The experiment in a line: Inhibition of N-terminal 6xHis-tagged Clostridium sticklandii ATCC 12662 proline racemase expressed in Escherichia coli BL21(DE3) using L/D-proline as substrate preincubated for 5 mins by circular dichroism-based analysis. Also noted: species or system Acetoanaerobium sticklandii. For orientation: CD spectra are sensitive to the conformation of chiral molecules.

Assay [5] addresses T3, Proline racemase (Clostridium sticklandii) (UniProt Q9L4Q3).
T3 sequence (whole entry): T2 sequence (Q9L4Q3 whole entry)
The experiment in a line: Inhibition of N-terminal 6xHis-tagged Clostridium sticklandii ATCC 12662 proline racemase expressed in Escherichia coli BL21(DE3) using L/D-proline as substrate at 142.5 mM preincubated for 5 mins by circular dichroism-based analysis. The following applies: Acetoanaerobium sticklandii.

In assay [6] the target is T3, Proline racemase (Clostridium sticklandii). The experiment in a line: Inhibition of Clostridium sticklandii ATCC 12662 proline racemase L-proline as substrate at 57 mM relative to control. Conditions: Acetoanaerobium sticklandii.
Assay [7] shares this target. Put plainly: Inhibition of Clostridium sticklandii ATCC 12662 proline racemase using L-proline as substrate at 0.36 mM relative to control. Conditions: Acetoanaerobium sticklandii.
The target in assay [8] is T2, Proline racemase. The experiment in a line: Competitive inhibition of N-terminal 6xHis-tagged Clostridium sticklandii ATCC 12662 proline racemase expressed in Escherichia coli BL21(DE3) using L/D-proline as substrate. Also noted: species or system Acetoanaerobium sticklandii.

Turning to `NC(CO)(CO)C(=O)O`, the Ki (usually the equilibrium dissociation constant of an inhibitor or competing ligand from its target) in assay [1] worked out at 661 mM; in assay [2], 167 mM.
For `O=C(O)C12CCCN1CCC2`, in assay [3], the Ki is 111 mM. Also, the IC50 (usually the point on the concentration scale where inhibition reaches its midpoint) in assay [4] is 67 mM.
Consider `O=C(O)C12CCC(CC1)N2`, for which, in assay [5], the inhibition (in general, the drop in the measured response relative to a control, in per cent) was 29%.
As for `O=Cc1ccc[nH]1`, the inhibition in assay [6] is 98%; in assay [7], 50%. In assay [8], the Ki came to 0.0058 mM.
